From US9150845B2, “Lyase enzymes, nucleic acids encoding them and methods for making and using them” (BASF ENZYMES LLC, priority 2005, dated 2015)

Tests used:
[1] = tested on: DH5α host; experiment: Ammonia selection (growth with amino acid substrate, host + vector); type: cell-based; details: substrate tested
Excerpt: (§1) An exemplary activity-based discovery protocol comprises use of an ammonia selection using α-methylPhe to screen environmental libraries. […] A phenylalanine selection screen was also implemented to screen libraries, e.g., environmental libraries—which yielded, inter alia, chorismate mutases (CM), which complement a PheA mutation in the auxotroph screening host. An adamantyl phosphonate, an inhibitor of CM activity, also was used to determine whether can minimize background CM activity in this selection/screening protocol.

[2] = tested on: chorismate mutases (CM); experiment: Phenylalanine selection screen: suppression of background chorismate mutase activity; type: cell-based; details: PheA auxotroph screening host
Excerpt: as §1

[3] = Activity assignment of exemplary polypeptides (Table 1, assays of Examples 1, 2 and 3); type: biochemical; details: Table 1 (FIG. 8)
Excerpt: Table 1, presented as FIG. 8, details an exemplary activity determined for each exemplary polypeptide of the invention (and, also notes one exemplary nucleic acid of the invention that encodes the exemplary polypeptide; as determined by the assays described in Examples 1, 2 and 3, below. Table 1 also sets forth the source organism from which the polynucleotide was isolated (where “unknown” means that the source was an environmental sample), the GenBank accession number of the top BLAST hit, the organism from which the top BLAST hit was isolated, the percent sequence identity between the polypeptide of the invention and the top BLAST hit, the activity assigned to the top BLAST hit, and notes for that particular polynucleotide/polypeptide entry. […]
HAL enzyme activity can be determined as described in Baedeker & Schulz (Eur. J. Biochem 2002, 269, 1790-1797), wherein enzyme activity was determined as the rate of urocanate formation, measured spectrophotometrically at 277 nm. […] The reaction was started by adding 200 μL of 0.5 M histidine solution and then monitored for approximately 5 minutes.
In one aspect, PAL enzyme activity can be determined as described in Rother & Retey (Eur. J. Biochem, 2002, 269, 3065-3075), by following the formation of E-cinnamate spectrophotometrically at 30° C. at 290 nm. […] Kinetic constants were determined using a double reciprocal plot. […]

N[C@@H](Cc1ccccc1)C(=O)O [Phe, phenylalanine]
background growth with negative control (host+empty vector) [1]: background growth

N[C@@H](Cc1ccccc1Br)C(=O)O [2-BromoPhe, 2-Bromo-L-phenylalanine]
background growth with negative control (host+empty vector) [1]: background growth

N[C@@H](Cc1ccccc1Cl)C(=O)O [2-ChloroPhe, 2-Chloro-L-phenylalanine]
background growth with negative control (host+empty vector) [1]: background growth

C[C@](N)(Cc1ccccc1)C(=O)O [α-methylPhe, α-methylphenylalanine]
background growth with negative control (host+empty vector) [1]: no background growth

adamantyl phosphonate
inhibition of background CM activity in selection/screening protocol [2]: lack of potency

B1: SEQ ID NO:2: polypeptide encoded by SEQ ID NO:1, initially isolated from Tannerella forsythensis ATCC 43037 (protein)
chain: MEKTVTYQSEKGFSIHDVERLLLGQSHLKLSAESLQKVERCFIFLREFSTDKVIYGINTGFGPMAQYRVDDNCLKQLQYNIIRSHSTGAGEPLDPIYVKAAMIARLSTFLQGYSGIHTDLVRLLTEFINRDICPFIPEHGSVGASGDLVQLAHIALTLIGEGEVFYEGKRRPTAEVMQKEKLSPLDIYIREGLSATNGTSVMTGIGLVNLIYAKRLLHWSIAASVMMNEIASSYDDLMSPGLNATKRHEGQQEIARAMCRWAAGSKAMRKREIEMFQRHTEKVFGHKVQAYYSLRCVPQILGPIWDTMAYAEKVLVDELNSACDNPIVDPEAQYVYHGGNFHGDYISFEMDKLKIAVTKMTMLAERQLNYLFHNRINDDILPPFVNLGVLGLNYGLQAAQFTATSTTAECQTLSNPMYIHSIPNNNDNQDIVSMGANAALMAKTVIENGYQVMAIHFMALVQAVDYLKLQPRMAEKTRAVYDEIRAFFPVFTDDTPKYREIETMITYLKSSGKRI
modifications: Tannerella forsythensis ATCC 43037; DOMAIN (4)...(493): Phenylalanine and histidine ammonia-lyase
exemplary activity determined for the polypeptide [3]: TAL and PAL activity

B2: SEQ ID NO:236: polypeptide encoded by SEQ ID NO:235, initially isolated from Pseudomonas fluorescens PfO-1 (protein)
chain: MITIRGEGLTIAQIAAVARGAPVRMTDDEAVLARVRASRQRIVEALESGQQIYGVTTLYGGMADRVVPADRLEALQRVSLWHHKVGAGPRLPVPDVRAAMLLRANSLLKGASGVRVELVERYVAFLNAGATPHVYQRGSIGASGDLSPLAYIGAAVIGLDRAWLVDLGEETLDCLTVLRRLGLEPMILQPKEGLALCNGTAASTGVAANCIERAFALTALALGTHALYFQALDATTQSFEPFVHALKPHPGQVWTAREMAALLDGSGLVRSEAAGDRAHRRGGLIQDRYSLRCMPQFVGPIVDGLAEAARQIEIEANSANDNPLIDPETGEVFHTGNFLAEYTAVAMDRLRYHLGMLAKHLDTQIALLVAPEFSRGLSPSLAGNLEPGLNVGLKSLQISCNSLMPLLTFYGQSMADRFPTHAEQFNQNINSQAMNGANLARDSVEVLAHFMANALVFAVQAVELRAWLVAGTYDASEVLSPATRPLYAAARAAAAGPPGPHRPLVWNDTDGFLEDKVRGVMSSILEGGAVPEAVAPVRERLRAHRG
modifications: Obtained from environmental sample; DOMAIN (1)...(492): Phenylalanine and histidine ammonia-lyase; SITE (140)...(156): Phenylalanine and histidine ammonia-lyases signature. Prosite id = PS00488; SITE (201)...(204): N-glycosylation site. Prosite id = PS00001; SITE (514)...(517): N-glycosylat
exemplary activity determined for the polypeptide [3]: esterase activity
